Experimental data reported in patent publication US11339177B2, “Heteroaryl compounds as inhibitors of necrosis, composition and method using the same” (ACCRO BIOSCIENCE INC., priority 2017, dated 2022).
Structures can show the parent of a compound that is named as a salt.

Legend:
Format in all cases: cell-based
[1] = tested on: L929 cells; test: Necroptosis assay in L929 cells (TNF-α, z-VAD; cell viability by ATP levels); conditions: Mus musculus, TNF-α (40 ng/mL), z-VAD (20 μM), 48 hours
Protocol: […] Then the cells were treated with TNF-α (40 ng/mL) and z-VAD (20 μM) for 48 hours, and the viability of cells was quantified by detecting adenosine triphosphate (ATP) levels. DMSO pretreatment group was used as negative controls, Nec-1 pretreatment group was used as positive controls.

[2] = tested on: HT29 cells; test: Necroptosis assay in HT29 cells (TNF-α, Smac mimetic, z-VAD; cell viability); conditions: Homo sapiens, HT-29; inhibition of necrosis in HT29 cells, compound at 50 nM
[3] = tested on: HT29 cells; test: as above; conditions: Homo sapiens, HT-29; TNF-α (40 ng/mL), Smacmimetic (100 nM), z-VAD (20 μM), 48 hours
Protocol: Human colon cancer HT29 cells were used in a necroptosis assay. For this assay, HT29 cells were added to 96-well plates and then were pre-treated with 10 μM of the test compound for one hour. Then the cells were treated with TNF-α (40 ng/mL), Smacmimetic (100 nM) and z-VAD (20 μM) for 48 hours, and the viability of cells was quantified. DMSO pretreatment group was used as negative controls, Nec-1 pretreatment group was used as positive controls.
In Table 2, (1) “ND” indicates “not detected;” (2) Explanation for inhibition %: Taking Compound B14 as an example, its inhibition % was 30% (50 nM). It means that the when Compound B14 at a concentration of 50 nM was used in the HT29 Cell Assay, the necrosis of cells were inhibited at 30%.

Question: Which results are given for `Nc1nc2ccc(-c3cnc4c(c3)N(C(=O)OC3CCOCC3)CCO4)cc2s1` [Compound B14, tetrahydro-2H-pyran-4-yl7-(2-aminobenzo[d]thiazol-6-yl)-2,3-dihydro-1H-pyrido[2,3-b][1,4]oxazine-1-carboxylate hydrochloride]?
Answer: IC50 [1]: 12.6 nM; inhibition at 0.05 µM [2]: 30%

Question: How did the inhibition at 0.05 µM [2] turn out when `CC(=O)Nc1cn2cc(-c3cnc4c(c3)N(C(=O)OC3CCOCC3)CCO4)ccc2n1` [Compound B18] was run?
Answer: 10%

Question: With `CC(=O)Nc1cn2nc(-c3cnc4c(c3)N(C(=O)OC3CCOCC3)CCO4)ccc2n1` [Compound B20] as the molecule, how does the inhibition at 0.05 µM [2] read?
Answer: 20%

Question: `CC(C)(C)OC(=O)Nc1cn2nc(-c3cnc4c(c3)N(C(=O)OC3CCOCC3)CCO4)ccc2n1` [Compound B22] was tested. Which IC50 [3] did it give?
Answer: 114 nM

Question: And the IC50 [1]?
Answer: 80 nM

Question: What about the inhibition at 0.05 µM [2] of the same molecule?
Answer: 25%

Question: For `Nc1cn2nc(-c3cnc4c(c3)N(C(=O)OC3CCOCC3)CCO4)ccc2n1` [Compound B23], which IC50 [3] is on record?
Answer: 147 nM

Question: What about the IC50 [1] of the same molecule?
Answer: 11.5 nM

Question: And the inhibition at 0.05 µM [2]?
Answer: 10%

Question: Which IC50 [3] does the source give for `O=C(Nc1nc2ccc(-c3cnc4c(c3)N(C(=O)OC3CCS(=O)(=O)CC3)CC4)cc2s1)C1CC1` [Compound B69, 1,1-dioxidotetrahydro-2H-thiopyran-4-yl6-(2-(cyclopropanecarboxamido)benzo[d]thiazol-6-yl)-2,3-dihydro-1H-pyrrolo[3,2-b]pyridine-1-carboxylate] here?
Answer: 4.8 nM

Question: What about the IC50 [1] of the same molecule?
Answer: 15 nM

Question: Which IC50 [3] does the source give for `O=C(Nc1nc2ccc(-c3cnc4c(c3)N(C(=O)OC3CCC(F)(F)CC3)CC4)cc2s1)C1CC1` [Compound B70] here?
Answer: 1.2 nM

Question: What about the IC50 [1] of the same molecule?
Answer: 1.3 nM
